The source of these data is the NIST ThermoML archive (doi:10.1016/j.jct.2008.07.009).

± gives the expanded uncertainty stated by the source.

For the data set the following is noted: 101.33 kPa, Liquid, Vibrating tube method.

Broadly, the mass density is mass per unit of volume. On to `Cc1cc(C)cc(C)c1` [1,3,5-trimethylbenzene], for which the mass density is given as 865.1 ± 6 kg/m3 (293.15 K); 856.9 ± 6 kg/m3 (303.15 K); 842.8 ± 6 kg/m3 (313.15 K); 834.7 ± 6 kg/m3 (323.15 K); 826.6 ± 6 kg/m3 (333.15 K); 818.5 ± 6 kg/m3 (343.15 K).

Turning to `CC(=O)N1CCOCC1` [4-acetylmorpholine], the mass density is, setting by setting: (293.15 K) 1113.8 ± 6.1 kg/m3; (303.15 K) 1105.9 ± 6.1 kg/m3; (313.15 K) 1097.3 ± 6.1 kg/m3; (323.15 K) 1088.7 ± 6.1 kg/m3; (333.15 K) 1080.1 ± 6.1 kg/m3; (343.15 K) 1071.5 ± 6.1 kg/m3.

For the compound `c1ccccc1` [benzene], the mass density amounted to 878.9 ± 6 kg/m3 (293.15 K); 868.2 ± 6 kg/m3 (303.15 K); 857.4 ± 6 kg/m3 (313.15 K); 846.5 ± 6 kg/m3 (323.15 K); 835.7 ± 6 kg/m3 (333.15 K); 824.7 ± 6 kg/m3 (343.15 K).

As to `CCc1ccccc1` [ethylbenzene], the mass density reads like this: (293.15 K) 867.2 ± 6 kg/m3; (303.15 K) 858.3 ± 6 kg/m3; (313.15 K) 849.3 ± 6 kg/m3; (323.15 K) 840.3 ± 6 kg/m3; (333.15 K) 831.2 ± 6 kg/m3; (343.15 K) 822.1 ± 6 kg/m3.

For the compound `Cc1ccccc1` [toluene], the mass density by setting is: (293.15 K) 866.8 ± 6 kg/m3; (303.15 K) 857.5 ± 6 kg/m3; (313.15 K) 848.8 ± 6 kg/m3; (323.15 K) 838.9 ± 6 kg/m3; (333.15 K) 829.6 ± 6 kg/m3; (343.15 K) 820.2 ± 6 kg/m3.
